The values that follow are results of earlier work, collected in patent publication US20080279765A1, “Novel Imaging Agents for Fibrosis” (priority 2005, published 2008).

Like-named read-outs stand apart in the source and are kept apart here.

In data set [1] the target is T1, M6P receptor (Homo sapiens, UniProt P11717). To be noted: site on M6P receptor distinct from the IGF-II binding site.
Data set [2] concerns the target T1, M6P receptor. To be noted: pH 7.4; read-out: Kd of binding to the M6P receptor.

T1 sequence (P11717 41-2491): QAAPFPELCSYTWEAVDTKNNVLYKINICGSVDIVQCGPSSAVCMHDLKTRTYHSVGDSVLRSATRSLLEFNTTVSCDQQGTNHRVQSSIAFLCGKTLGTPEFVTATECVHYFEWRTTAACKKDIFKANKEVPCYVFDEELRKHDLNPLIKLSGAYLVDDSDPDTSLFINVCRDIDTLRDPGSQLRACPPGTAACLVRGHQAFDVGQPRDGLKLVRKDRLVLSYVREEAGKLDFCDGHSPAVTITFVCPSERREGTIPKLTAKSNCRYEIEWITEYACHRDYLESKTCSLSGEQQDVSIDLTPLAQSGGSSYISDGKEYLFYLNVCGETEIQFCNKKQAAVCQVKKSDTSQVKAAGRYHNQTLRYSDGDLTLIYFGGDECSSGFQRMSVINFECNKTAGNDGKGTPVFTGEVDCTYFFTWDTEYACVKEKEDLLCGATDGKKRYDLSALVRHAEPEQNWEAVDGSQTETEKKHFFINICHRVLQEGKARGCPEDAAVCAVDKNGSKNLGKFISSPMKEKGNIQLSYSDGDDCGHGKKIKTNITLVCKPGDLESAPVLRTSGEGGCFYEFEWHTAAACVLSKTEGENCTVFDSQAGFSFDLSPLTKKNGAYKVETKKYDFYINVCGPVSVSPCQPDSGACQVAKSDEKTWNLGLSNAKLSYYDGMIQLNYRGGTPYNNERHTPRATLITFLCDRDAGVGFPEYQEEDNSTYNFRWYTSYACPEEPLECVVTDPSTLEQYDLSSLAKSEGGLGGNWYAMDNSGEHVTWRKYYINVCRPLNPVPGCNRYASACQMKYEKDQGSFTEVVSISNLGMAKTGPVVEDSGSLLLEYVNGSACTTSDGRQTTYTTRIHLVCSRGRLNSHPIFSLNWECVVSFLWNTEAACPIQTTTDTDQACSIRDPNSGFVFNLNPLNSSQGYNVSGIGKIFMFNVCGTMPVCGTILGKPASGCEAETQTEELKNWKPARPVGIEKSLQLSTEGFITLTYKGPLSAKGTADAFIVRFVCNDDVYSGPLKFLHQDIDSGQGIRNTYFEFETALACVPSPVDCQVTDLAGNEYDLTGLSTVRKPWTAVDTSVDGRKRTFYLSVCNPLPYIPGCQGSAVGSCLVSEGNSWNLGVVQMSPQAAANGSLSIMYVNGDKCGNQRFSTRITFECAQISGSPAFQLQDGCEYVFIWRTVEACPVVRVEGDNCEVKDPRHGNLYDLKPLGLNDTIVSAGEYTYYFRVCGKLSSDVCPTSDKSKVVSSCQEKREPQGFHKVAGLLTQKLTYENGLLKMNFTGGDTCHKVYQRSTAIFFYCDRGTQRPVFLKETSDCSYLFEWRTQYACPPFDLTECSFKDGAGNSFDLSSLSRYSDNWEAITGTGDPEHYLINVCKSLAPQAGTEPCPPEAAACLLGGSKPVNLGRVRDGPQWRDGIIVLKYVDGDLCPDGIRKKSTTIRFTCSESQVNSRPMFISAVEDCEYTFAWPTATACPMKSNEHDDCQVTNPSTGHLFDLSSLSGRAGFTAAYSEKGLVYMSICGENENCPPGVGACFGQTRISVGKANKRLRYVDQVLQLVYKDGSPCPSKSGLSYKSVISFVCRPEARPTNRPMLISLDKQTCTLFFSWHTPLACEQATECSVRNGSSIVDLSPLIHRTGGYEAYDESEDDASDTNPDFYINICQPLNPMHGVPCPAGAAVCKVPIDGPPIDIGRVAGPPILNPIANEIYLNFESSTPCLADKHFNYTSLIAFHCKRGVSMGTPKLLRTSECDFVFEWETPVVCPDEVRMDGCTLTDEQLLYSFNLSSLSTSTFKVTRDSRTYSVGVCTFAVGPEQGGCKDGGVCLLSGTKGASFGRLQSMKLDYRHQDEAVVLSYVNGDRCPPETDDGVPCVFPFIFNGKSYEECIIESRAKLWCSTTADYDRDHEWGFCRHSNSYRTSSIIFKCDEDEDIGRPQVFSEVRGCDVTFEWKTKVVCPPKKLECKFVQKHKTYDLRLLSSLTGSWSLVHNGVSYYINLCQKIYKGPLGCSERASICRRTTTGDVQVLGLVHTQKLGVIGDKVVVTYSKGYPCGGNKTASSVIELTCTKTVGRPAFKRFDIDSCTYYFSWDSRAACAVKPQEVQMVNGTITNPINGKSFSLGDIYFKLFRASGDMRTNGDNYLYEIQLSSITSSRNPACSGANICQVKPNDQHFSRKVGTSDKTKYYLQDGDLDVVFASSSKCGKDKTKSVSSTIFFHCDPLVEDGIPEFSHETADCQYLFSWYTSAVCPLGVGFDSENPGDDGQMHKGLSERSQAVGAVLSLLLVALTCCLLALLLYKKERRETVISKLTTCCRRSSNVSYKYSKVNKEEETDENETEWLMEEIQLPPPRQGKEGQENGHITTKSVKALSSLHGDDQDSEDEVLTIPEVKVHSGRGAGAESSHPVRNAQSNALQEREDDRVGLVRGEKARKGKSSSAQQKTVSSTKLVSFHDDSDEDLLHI

As for retinoic acid, on M6P receptor [1], the Kd is 2.4 nM.
Take “IGF-II: non-glycosylated single chain of 67 amino acid residues, SEQ ID NO. 1”: in the data set with M6P receptor [2], the equilibrium dissociation constant (Kd) is 0.3 to 14 nM.

For orientation: Kd means the equilibrium constant for the complex coming apart.
